ChEMBL document CHEMBL5356942, “MEK inhibitors in cancer treatment: structural insights, regulation, recent advances and future perspectives” (RSC Med Chem, 2023)
Values belong to the molecule of their own block, whether it stands above or below them.

Tests used:
[1] = test system: SMMC-7721; test: Cytotoxicity against human SMMC-7721 cells assessed as reduction in cell growth incubated for 48 hrs by MTT assay; assay type: functional, cell-based; details: SMMC-7721, 48 h
[2] = Cytotoxicity against human QSG7701 cells assessed as inhibition of cell growth incubated for 48 hrs by MTT assay; assay type: functional, cell-based; details: QSG7701, 48 h
[3] = test system: Hep 3B2; test: Cytotoxicity against human Hep3B cells assessed as reduction in cell viability incubated for 48 hrs by MTT assay; assay type: functional, cell-based
[4] = Oral bioavailability in ICR mouse at 3 mg/kg measured after 24 hrs by LC-MS/MS analysis; assay type: ADME, organism-based; details: in vivo
[5] = AUC (0 to t) in ICR mouse at 3 mg/kg, po administered via gavage measured after 24 hrs by LC-MS/MS analysis; assay type: ADME, organism-based; parameters: time 24 hrs, dose 3 mg/kg, route po; details: in vivo
[6] = Therapeutic index, ratio of CC50 for HEK293 cells to EC50 for antiviral activity against human EV71 infected in HEK293 cells; assay type: functional
[7] = test system: RD; test: Cytotoxicity against human RD cells assessed as reduction in cell viability incubated for 72 hrs by MTT assay; assay type: functional
[8] = test system: Enterovirus A71; test: Antiviral activity against human EV71 infected in HEK293 cells assessed as reduction in viral replication at MOI of 1 incubated for 48 hrs by luciferase assay; assay type: functional, organism-based; details: Enterovirus A, HEK293, 48 h
[9] = Therapeutic index, ratio of CC50 for RD cells to EC50 for antiviral activity against human EV71 infected in RD cells; assay type: functional
[10] = test system: HEK293; test: Cytotoxicity against HEK293 cells assessed as reduction in cell viability measured after 66 hrs by MTT assay; assay type: functional; details: Homo sapiens
[11] = test system: Enterovirus A71; test: Antiviral activity against human Enterovirus 71 BrCr infected in human RD cells assessed as reduction of virus induced cytopathic effect incubated for 48 hrs by MTS assay; assay type: functional, organism-based; details: Enterovirus A
[12] = test system: COLO 205; test: Antiproliferative activity against human COLO 205 cells assessed as reduction in cell proliferation incubated for 24 hrs byMTS assay; assay type: functional, cell-based; details: COLO 205, 24 h
[13] = test system: Calu-6; test: Antiproliferative activity against human Calu-6 cells assessed as reduction in cell growth incubated for 24 hrs by MTT assay; assay type: functional, cell-based; details: Calu-6, 24 h
[14] = test system: HT-29; test: Antiproliferative activity against human HT-29 cells assessed as reduction in cell growth incubated for 24 hrs by MTT assay; assay type: functional, cell-based; details: HT-29, 24 h
[15] = test system: A-375; test: Antiproliferative activity against human A375 cells assessed as reduction in cell growth incubated for 24 hrs by MTT assay; assay type: functional, cell-based; details: A-375, 24 h
[16] = test system: A-431; test: Antiproliferative activity against human A-431 cells assessed as reduction in cell proliferation incubated for 24 hrs by MTT assay; assay type: functional, cell-based; details: A-431, 24 h
[17] = test system: MDA-MB-231; test: Cytotoxicity against human MDA-MB-231 cells assessed as reduction in cell viability incubated for 72 hrs by MTT assay; assay type: functional, cell-based; details: MDA-MB-231, 72 h
[18] = test system: HeLa; test: Cytotoxicity against human HeLa cells assessed as reduction in cell viability incubated for 72 hrs by MTT assay; assay type: functional, cell-based
[19] = Cytotoxicity against human QSG7701 cells assessed as inhibition of cell growth incubated for 72 hrs by MTT assay; assay type: functional, cell-based; details: QSG7701, 72 h
[20] = test system: SMMC-7721; test: Cytotoxicity against human SMMC-7721 cells assessed as reduction in cell viability incubated for 72 hrs by MTT assay; assay type: functional, cell-based; details: SMMC-7721, 72 h
[21] = target: Mitogen-activated protein kinase 1 (Homo sapiens, UniProt P28482); test: Inhibition of ERK2 phosphorylation in human A375 cells
[22] = test system: HT-29; test: Cytotoxicity against human HT-29 cells assessed as reduction in cell viability incubated for 24 hrs in dark by MTT assay; assay type: functional, cell-based; details: HT-29, 24 h
[23] = test system: B16; test: Cytotoxicity against mouse B16 cells assessed as reduction in cell viability incubated for 24 hrs by MTT assay; assay type: functional, cell-based; details: B16, 24 h
[24] = test system: MCF7; test: Cytotoxicity against human MCF7 cells assessed as reduction in cell viability incubated for 24 hrs by MTT assay; assay type: functional, cell-based; details: MCF7, 24 h
[25] = Inhibition of ERK phosphorylation in human A-431 cells at 1 to 10 uM incubated for 24 hrs by Western blot analysis; assay type: cell-based; details: A-431, 24 h

Chain of Mitogen-activated protein kinase 1 (P28482 whole entry): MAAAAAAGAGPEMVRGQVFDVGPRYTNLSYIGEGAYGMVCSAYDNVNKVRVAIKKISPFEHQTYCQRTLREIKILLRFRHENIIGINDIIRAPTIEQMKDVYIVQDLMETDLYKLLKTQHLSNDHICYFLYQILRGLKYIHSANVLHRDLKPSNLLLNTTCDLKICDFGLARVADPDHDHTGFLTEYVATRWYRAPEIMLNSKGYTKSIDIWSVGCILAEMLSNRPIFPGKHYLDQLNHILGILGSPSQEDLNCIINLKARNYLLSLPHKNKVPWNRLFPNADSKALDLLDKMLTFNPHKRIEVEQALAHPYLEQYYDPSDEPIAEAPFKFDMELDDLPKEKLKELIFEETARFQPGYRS

bioavailability [4]: 28% | AUCt [5]: 337 ng·h/mL
Compound: Cc1cc(I)ccc1Nc1c(C(=O)NOCCO)cc2ocnc2c1F

IC50 [12]: 0.0057 µM | IC50 [13]: 0.169 µM | IC50 [14]: 0.0029 µM | IC50 [15]: 0.0043 µM | IC50 [16]: > 3 µM
Compound: O=C(NOCCO)c1cc2ocnc2c(F)c1Nc1ccc(F)cc1F

IC50 [21]: 0.018 µM
Compound: CC(=O)COC[C@H](O)CONC(=O)c1ccc(F)c(F)c1Nc1ccc(F)cc1F

EC50 [25]: 0.00019 µM
Compound: Cn1c(=O)c(F)c(Nc2ccc(I)cc2F)c2c(=O)n(C[C@@H](O)CO)cnc21 [TAK-733]

The next lines start with the molecule.

Compound: CCOc1ccc2c(c1)c1c(n2CCN2CCNCC2)-c2cc(C(C)C)ccc2[C@@]2(C)CCC[C@@](C)(C(=O)OC)C12 (stereo not given in full)
IC50 [1]: 1.39 µM | IC50 [2]: 12.5 µM | IC50 [3]: 0.73 µM

Compound: CCc1c(Cc2ccc(F)cc2)c(=O)oc2cc(OC(=O)N(C)C)ccc12
Ratio CC50/EC50 [6]: 3.37 | CC50 [7]: 72.9 µM | EC50 [8]: 19.4 µM | Ratio CC50/EC50 [9]: 7.29 | CC50 [10]: 65.3 µM | EC50 [11]: 10 µM

Compound: CC(=O)NNC(=O)[C@]12CC[C@@H](C)[C@H](C)C1C1=CCC3[C@@]4(C)Cc5cc6cc(Cl)ccc6cc5C(C)(C)C4CC[C@@]3(C)[C@]1(C)CC2 (stereo not given in full)
IC50 [17]: 0.12 µM | IC50 [18]: 0.08 µM | IC50 [19]: 10.8 µM | IC50 [20]: 0.34 µM

Compound: N#Cc1c(-c2ccccc2Br)c(N2CCOCC2)n(-c2ccc(Cl)cc2Cl)c1N
IC50 [22]: 1.47 µM | IC50 [23]: 4.61 µM | IC50 [24]: 1.35 µM
